Source: patent US20260109732A1, “LIPID AMINES” (ModernaTX, Inc., priority 2021, published 2026)
Structures can show the parent of a compound that is named as a salt.

Columns and labels:
[1] = Diameter and PDI from DLS measurements of mRNA nanoparticles with lipid amines; type: physicochemical
Method in brief: (§1)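 DLS gave size and PDI, and Ribogreen gave encapsulation, for luciferase- or CFTR-mRNA nanoparticles (N:P 4.93). Particles came from IL1/DSPC/cholesterol/PEG-DMG-2K mixed at pH 4, mRNA-loaded, neutralized with TRIS pH 8.12, and then treated with lipid amine SA50 in pH 7.5 buffer.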

HeLa cells [2] = assay: Luciferase Protein Expression Assay in HeLa Cells; type: cell-based, Human; details: LNPs encapsulating Luciferase mRNA, 25 ng per well, N=4 wells; 5 h serum-free then 24 h; ONE-Glo
Method in brief: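 Luminescence output, average RLU across N=4 wells, was measured with ONE-Glo after cell lysis. Before that, HeLa cells were exposed to 25 ng/well luciferase-mRNA nanoparticles (PBS control) for 5 h serum-free, then cultured overnight (24 h) in complete MEM.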

[3] = Encapsulation of mRNA nanoparticles with lipid amines using Ribogreen assay; type: physicochemical
Method in brief: as §1

HeLa cells [4] = assay: CFTR Protein Expression Assay in HeLa Cells; type: cell-based, Human; details: LNPs encapsulating CFTR mRNA, N=4 wells; 5 h serum-free then 24 h; immunofluorescence vs PBS control
Method in brief: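 Readout is fold-change in per-cell CFTR immunofluorescence intensity (488 nm, confocal imaging) relative to PBS-treated cells, from 4 replicate wells. LNPs encapsulating CFTR mRNA were applied serum-free for 5 h, followed by 24 h in complete medium before PFA fixation.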

[5] = CFTR mRNA nanoparticle with lipid amine
[6] = Luciferase mRNA nanoparticle modified with lipid amine

Row | SMILES | Diameter (nm) [1, 5] | PDI [1, 5] | Diameter (nm) [1, 6] | PDI [1, 6] | Average Relative Light Units ± Standard Deviation (HeLa cells [2]) | % Encapsulation (Ribogreen) [3, 5] | % Encapsulation (Ribogreen) [3, 6] | Average fold-change in CFTR signal intensity per cell compared to buffer control ± standard deviation (HeLa cells [4])
1 | CC[C@H](CC[C@@H](C)[C@H]1CC[C@H]2[C@@H]3CC=C4C[C@@H](OC(=O)CCCC(=O)N(CCC(C)N)CCC(C)N)CC[C@]4(C)[C@H]3CC[C@]12C)C(C)C (stereo partly drawn) [SA156, (3S,8S,9S,10R,13R,14S,17R)-17-((2R,5R)-5-ethyl-6-methylheptan-2-yl)-10,13-dimethyl-2,3,4,7,8,9,10,11,12,13,14,15,16,17-tetradecahydro-1H-cyclopenta[a]phenanthren-3-yl 5-(bis(3-aminobutyl)amino)-5-oxopentanoate dihydrochloride] | 76.5 nm | 0.18 | 74 nm | 0.15 | 37662.9 ± 8258.6 Relative Light Units | 99.6% | 99.5% | 14.6 ± 0.8 fold-change
2 | CC(C)CCC[C@@H](C)[C@H]1CC[C@H]2[C@@H]3CC=C4C[C@@H](SSCCCCC(=O)N(CCCN)CCCCCCCCN)CC[C@]4(C)[C@H]3CC[C@]12C [SA110, N-(8-Aminooctyl)-N-(3-aminopropyl)-5-(((3S,8S,9S,10R,13R,14S,17R)-10,13-dimethyl-17-((R)-6-methylheptan-2-yl)-2,3,4,7,8,9,10,11,12,13,14,15,16,17-tetradecahydro-1H-cyclopenta[a]phenanthren-3-yl)disulfaneyl)pentanamide dihydrochloride] | 84.2 nm | 0.15 | 70 nm | 0.14 | 14227 ± 2513.9 Relative Light Units | 98.8% | 98.8% | 4.0 ± 0.2 fold-change
3 | CC[C@H](CC[C@@H](C)[C@H]1CC[C@H]2[C@@H]3CC=C4C[C@@H](OC(=O)N(CCCCCCN)CCCCCCN)CC[C@]4(C)[C@H]3CC[C@]12C)C(C)C [SA82, (3S,8S,9S,10R,13R,14S,17R)-17-((2R,5R)-5-Ethyl-6-methylheptan-2-yl)-10,13-dimethyl-2,3,4,7,8,9,10,11,12,13,14,15,16,17-tetradecahydro-1H-cyclopenta[a]phenanthren-3-yl bis(6-aminohexyl)carbamate dihydrochloride] | 80.7 nm | 0.13 | 73 nm | 0.11 | 33396.2 ± 4902.7 Relative Light Units | 99.4% | 99.1% | 4.6 ± 0.2 fold-change
4 | CC(C)CCC[C@@H](C)[C@H]1CC[C@H]2[C@@H]3CC=C4C[C@@H](OC(=O)N(CCCN)CCCCCCCCN)CC[C@]4(C)[C@H]3CC[C@]12C [SA60, (3S,8S,9S,10R,13R,14S,17R)-10,13-Dimethyl-17-((R)-6-methylheptan-2-yl)-2,3,4,7,8,9,10,11,12,13,14,15,16,17-tetradecahydro-1H-cyclopenta[a]phenanthren-3-yl (8-aminooctyl)(3-aminopropyl)carbamate dihydrochloride] | 70.9 nm | 0.08 | 74 nm | 0.13 | 30508.5 ± 6869.7 Relative Light Units | 99.5% | 98.8% | 10.7 ± 0.1 fold-change
5 | CC[C@H](CC[C@@H](C)[C@H]1CC[C@H]2[C@@H]3CC=C4C[C@@H](OC(=O)N(CCCN)CCCCCCCCN)CC[C@]4(C)[C@H]3CC[C@]12C)C(C)C [SA69, (3S,8S,9S,10R,13R,14S,17R)-17-((2R,5R)-5-Ethyl-6-methylheptan-2-yl)-10,13-dimethyl-2,3,4,7,8,9,10,11,12,13,14,15,16,17-tetradecahydro-1H-cyclopenta[a]phenanthren-3-yl (8-aminooctyl)(3-aminopropyl)carbamate dihydrochloride] | 74.0 nm | 0.13 | 71 nm | 0.16 | 35256.9 ± 8309.9 Relative Light Units | 99.9% | 98.9% | 5.3 ± 0.5 fold-change
6 | CC(C)CCC[C@@H](C)[C@H]1CC[C@H]2[C@@H]3CC=C4C[C@@H](SSCCC(=O)N(CCC(C)(C)N)CCC(C)(C)N)CC[C@]4(C)[C@H]3CC[C@]12C [SA174, N,N-bis(3-amino-3-methylbutyl)-3-(((3S,8S,9S,10R,13R,14S,17R)-10,13-dimethyl-17-((R)-6-methylheptan-2-yl)-2,3,4,7,8,9,10,11,12,13,14,15,16,17-tetradecahydro-1H-cyclopenta[a]phenanthren-3-yl)disulfaneyl)propanamide dihydrochloride] | 71.1 nm | 0.16 | 73 nm | 0.17 | 31280.7 ± 5830.7 Relative Light Units | 98.1% | 99.5% | 14.8 ± 1.4 fold-change
7 | CC[C@H](CC[C@@H](C)[C@H]1CC[C@H]2[C@@H]3CC=C4C[C@@H](OC(=O)[C@H](C)N(CCCN)CCCCNCCCN)CC[C@]4(C)[C@H]3CC[C@]12C)C(C)C [SA118, (3S,8S,9S,10R,13R,14S,17R)-17-((2R,5R)-5-ethyl-6-methylheptan-2-yl)-10,13-dimethyl-2,3,4,7,8,9,10,11,12,13,14,15,16,17-tetradecahydro-1H-cyclopenta[a]phenanthren-3-yl N-(3-aminopropyl)-N-(4-((3-aminopropyl)amino)butyl)alaninate tetrahydrochloride] | 89.9 nm | 0.16 | 74 nm | 0.19 | 12261.7 ± 4328.5 Relative Light Units | 97.9% | 99.7% | 9.7 ± 1.2 fold-change
8 | CC[C@H](CC[C@@H](C)[C@H]1CC[C@H]2[C@@H]3CC=C4C[C@@H](OC(=O)CCCC(=O)N(CCCCNCCC(C)N)CCC(C)N)CC[C@]4(C)[C@H]3CC[C@]12C)C(C)C.Cl.Cl.Cl (stereo partly drawn) [SA136, (3S,8S,9S,10R,13R,14S,17R)-17-((2R,5R)-5-ethyl-6-methylheptan-2-yl)-10,13-dimethyl-2,3,4,7,8,9,10,11,12,13,14,15,16,17-tetradecahydro-1H-cyclopenta[a]phenanthren-3-yl 5-((3-aminobutyl)(4-((3-aminobutyl)amino)butyl)amino)-5-oxopentanoate trihydrochloride] | 76.9 nm | 0.13 | 75 nm | 0.16 | 16245.8 ± 6554.6 Relative Light Units | 97.7% | 99.7% | 15.8 ± 1.4 fold-change
9 | CC(C)CCC[C@@H](C)[C@H]1CC[C@H]2[C@@H]3CC=C4C[C@@H](SSCCC(=O)N(CCC(C)N)CCC(C)N)CC[C@]4(C)[C@H]3CC[C@]12C (stereo partly drawn) [SA173, N,N-bis(3-aminobutyl)-3-(((3S,8S,9S,10R,13R,14S,17R)-10,13-dimethyl-17-((R)-6-methylheptan-2-yl)-2,3,4,7,8,9,10,11,12,13,14,15,16,17-tetradecahydro-1H-cyclopenta[a]phenanthren-3-yl)disulfaneyl)propanamide dihydrochloride] | 71.8 nm | 0.16 | 73 nm | 0.18 | 33596.1 ± 6033 Relative Light Units | 100% | 99.5% | 13.5 ± 0.8 fold-change
10 | CC(C)CCC[C@@H](C)[C@H]1CC[C@H]2[C@@H]3CC=C4C[C@@H](SSCCC(=O)N(CCCCNCCC(C)N)CCC(C)N)CC[C@]4(C)[C@H]3CC[C@]12C (stereo partly drawn) [SA171, N-(3-aminobutyl)-N-(4-((3-aminobutyl)amino)butyl)-3-(((3S,8S,9S,10R,13R,14S,17R)-10,13-dimethyl-17-((R)-6-methylheptan-2-yl)-2,3,4,7,8,9,10,11,12,13,14,15,16,17-tetradecahydro-1H-cyclopenta[a]phenanthren-3-yl)disulfaneyl)propanamide trihydrochloride] | 71.3 nm | 0.11 | 73 nm | 0.23 | 22232.4 ± 9084.1 Relative Light Units | 99.4% | 99.2% | 18.9 ± 1.9 fold-change
